What was measured:
FLT3-ITD = target: T1, FLT3-ITD (Homo sapiens, UniProt P36888); assay: FLT3-ITD biochemical kinase assay (AlphaScreen)
T1 construct: FLT3-ITD; Invitrogen #PV6190
T1 sequence (P36888 1-993): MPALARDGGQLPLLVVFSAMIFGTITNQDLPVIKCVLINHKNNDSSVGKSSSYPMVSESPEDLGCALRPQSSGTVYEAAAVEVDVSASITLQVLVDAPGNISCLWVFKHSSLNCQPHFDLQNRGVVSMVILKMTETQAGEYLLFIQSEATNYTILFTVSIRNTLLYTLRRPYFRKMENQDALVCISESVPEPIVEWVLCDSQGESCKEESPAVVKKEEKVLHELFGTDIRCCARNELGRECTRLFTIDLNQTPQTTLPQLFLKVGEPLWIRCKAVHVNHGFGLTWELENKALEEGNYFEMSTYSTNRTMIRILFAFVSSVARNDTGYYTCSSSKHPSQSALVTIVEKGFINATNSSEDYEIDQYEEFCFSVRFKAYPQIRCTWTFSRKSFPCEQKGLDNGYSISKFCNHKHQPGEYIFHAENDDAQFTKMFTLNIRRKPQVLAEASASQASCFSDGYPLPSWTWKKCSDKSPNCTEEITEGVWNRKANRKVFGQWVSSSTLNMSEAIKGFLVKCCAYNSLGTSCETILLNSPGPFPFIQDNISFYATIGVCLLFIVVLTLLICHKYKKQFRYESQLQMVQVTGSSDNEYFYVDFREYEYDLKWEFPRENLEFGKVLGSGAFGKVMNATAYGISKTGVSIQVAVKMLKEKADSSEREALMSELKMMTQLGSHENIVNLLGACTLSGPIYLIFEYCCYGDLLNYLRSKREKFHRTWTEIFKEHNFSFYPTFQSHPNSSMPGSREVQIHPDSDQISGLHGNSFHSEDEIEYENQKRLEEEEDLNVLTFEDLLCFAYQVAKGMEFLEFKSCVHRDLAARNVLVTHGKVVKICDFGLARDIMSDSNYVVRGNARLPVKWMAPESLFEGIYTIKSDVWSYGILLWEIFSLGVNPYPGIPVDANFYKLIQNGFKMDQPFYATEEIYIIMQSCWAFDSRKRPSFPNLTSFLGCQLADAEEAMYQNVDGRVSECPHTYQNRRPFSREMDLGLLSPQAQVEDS
Outline: (§1)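 Read-out is AlphaScreen at 580 nm, where reduced substrate tyrosine phosphorylation lowers bead proximity signal. Reactions contain 30 nM biotinylated poly(Glu4-Tyr) and ATP at 10 μM (D835Y) or 100 μM (ITD); PY20 acceptor beads 10 μg/mL final, 60 min at room temperature before reading.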

FLT3-D835Y = target: T2, FLT3-D835Y (Homo sapiens, UniProt P36888, D835Y); assay: FLT3-D835Y biochemical kinase assay (AlphaScreen)
T2 construct: purchased Invitrogen PV3967
T2 sequence (P36888 27-993 D835Y): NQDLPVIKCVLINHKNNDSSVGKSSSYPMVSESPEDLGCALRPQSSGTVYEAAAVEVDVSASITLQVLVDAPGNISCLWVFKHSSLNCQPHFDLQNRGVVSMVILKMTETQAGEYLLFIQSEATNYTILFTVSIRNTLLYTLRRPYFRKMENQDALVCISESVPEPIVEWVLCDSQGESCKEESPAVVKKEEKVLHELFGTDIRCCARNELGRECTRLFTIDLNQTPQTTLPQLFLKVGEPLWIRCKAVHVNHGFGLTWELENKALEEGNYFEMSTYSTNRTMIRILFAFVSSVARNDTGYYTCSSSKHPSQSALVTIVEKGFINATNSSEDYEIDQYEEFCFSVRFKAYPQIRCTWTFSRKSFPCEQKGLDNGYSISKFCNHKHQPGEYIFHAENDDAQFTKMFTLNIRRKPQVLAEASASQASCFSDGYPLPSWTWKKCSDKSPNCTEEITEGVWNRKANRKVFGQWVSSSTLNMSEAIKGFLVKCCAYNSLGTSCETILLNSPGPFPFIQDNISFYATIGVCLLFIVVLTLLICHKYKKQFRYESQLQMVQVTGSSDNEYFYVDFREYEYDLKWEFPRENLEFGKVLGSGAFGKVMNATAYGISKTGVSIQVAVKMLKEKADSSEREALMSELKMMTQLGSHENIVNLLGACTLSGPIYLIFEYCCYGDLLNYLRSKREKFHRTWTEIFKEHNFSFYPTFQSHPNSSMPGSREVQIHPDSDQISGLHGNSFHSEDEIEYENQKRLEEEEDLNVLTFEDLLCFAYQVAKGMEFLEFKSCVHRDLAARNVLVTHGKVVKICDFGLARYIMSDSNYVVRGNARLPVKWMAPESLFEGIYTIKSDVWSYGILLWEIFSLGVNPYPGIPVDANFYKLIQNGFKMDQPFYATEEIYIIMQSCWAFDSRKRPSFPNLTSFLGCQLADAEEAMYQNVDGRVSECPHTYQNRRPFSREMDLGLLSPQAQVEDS
Outline: as §1

Row | IC50 (FLT3-ITD) [µM] | IC50 (FLT3-D835Y) [µM] | SMILES
1 | 0.0001 to 1 | 0.0001 to 1 | O=S(=O)(c1cccc(-c2cnc3[nH]cc(-c4ccc5ncn(C6CCCNC6)c5c4)c3c2)c1)N1CCCC1 (stereo not shown) [P-222, 1-(3-piperidyl)-6-[5-(3-pyrrolidin-1-ylsulfonylphenyl)-1H-pyrrolo[2,3-b]pyridin-3-yl]benzimidazole]
2 | 0.0001 to 1 | 0.0001 to 1 | FC(F)(F)Cn1cc(-c2cnc3[nH]cc(-c4ccc5ncn(C6CCCNC6)c5c4)c3n2)cn1 (stereo not shown) [P-258, 7-[3-(3-piperidyl)benzimidazol-5-yl]-2-[1-(2,2,2-trifluoroethyl)pyrazol-4-yl]-5H-pyrrolo[2,3-b]pyrazine]
3 | 0.0001 to 1 | 0.0001 to 1 | N#Cc1cccc(C#Cc2cnc3[nH]cc(-c4ccc5ncn(C6CCCNC6)c5c4)c3c2)c1 (stereo not shown) [P-243, 3-[2-[3-[3-(3-piperidyl)benzimidazol-5-yl]-1H-pyrrolo[2,3-b]pyridin-5-yl]ethynyl]benzonitrile]
4 | 0.0001 to 1 | 0.0001 to 1 | COc1ncc(-c2cnc3[nH]cc(-c4ccc5ncn(C(C)C)c5c4)c3c2)cn1 [P-269, 1-isopropyl-6-[5-(2-methoxypyrimidin-5-yl)-1H-pyrrolo[2,3-b]pyridin-3-yl]benzimidazole]
5 | 0.0001 to 1 | 0.0001 to 1 | COc1cc(-c2cnc3[nH]cc(-c4ccc5ncn(C6CCCN(C(C)=O)C6)c5c4)c3n2)ccn1 (stereo not shown) [P-260, 1-[3-[6-[2-(2-methoxy-4-pyridyl)-5H-pyrrolo[2,3-b]pyrazin-7-yl]benzimidazol-1-yl]-1-piperidyl]ethanone]
6 | 0.0001 to 1 | 0.0001 to 1 | C(#Cc1cnc2[nH]cc(-c3ccc4ncn(C5CCCNC5)c4c3)c2n1)c1ccccc1 (stereo not shown) [P-248, 2-(2-phenylethynyl)-7-[3-(3-piperidyl)benzimidazol-5-yl]-5H-pyrrolo[2,3-b]pyrazine]
7 | 0.0001 to 1 | 0.0001 to 1 | CC(C)(C)n1cnc2ccc(-c3c[nH]c4ncc(-c5cccc(S(=O)(=O)N6CCCC6)c5)nc34)cc21 [P-229, 7-(3-tert-butylbenzimidazol-5-yl)-2-(3-pyrrolidin-1-ylsulfonylphenyl)-5H-pyrrolo[2,3-b]pyrazine]
8 | 0.0001 to 1 | 0.0001 to 1 | COc1cc(-c2cnc3[nH]cc(-c4ccc5ncn(C6CCCNC6)c5c4)c3n2)cc(OC)n1 (stereo not shown) [P-195, 2-(2,6-dimethoxy-4-pyridyl)-7-[3-(3-piperidyl)benzimidazol-5-yl]-5H-pyrrolo[2,3-b]pyrazine]
9 | 0.0001 to 1 | 0.0001 to 1 | CCCS(=O)(=O)Nc1cccc(-c2cnc3[nH]cc(-c4ccc5ncn(C(C)(C)C)c5c4)c3n2)c1 [P-225, N-[3-[7-(3-tert-butylbenzimidazol-5-yl)-5H-pyrrolo[2,3-b]pyrazin-2-yl]phenyl]propane-1-sulfonamide]
10 | 0.0001 to 1 | 0.0001 to 1 | O=S1(=O)CCCCN1c1cccc(-c2cnc3[nH]cc(-c4ccc5ncn(C6CCCNC6)c5c4)c3c2)c1 (stereo not shown) [P-224, 2-[3-[3-[3-(3-piperidyl)benzimidazol-5-yl]-1H-pyrrolo[2,3-b]pyridin-5-yl]phenyl]thiazinane 1,1-dioxide]
11 | 0.0001 to 1 | 0.0001 to 1 | CC(C)(CO)n1cnc2ccc(-c3c[nH]c4ncc(-c5cccc(NS(C)(=O)=O)c5)nc34)cc21 [P-115, N-[3-[7-[3-(2-hydroxy-1,1-dimethyl-ethyl)benzimidazol-5-yl]-5H-pyrrolo[2,3-b]pyrazin-2-yl]phenyl]methanesulfonamide]
12 | 0.0001 to 1 | 0.0001 to 1 | CN(c1cccc(-c2cnc3[nH]cc(-c4ccc5ncn(C)c5c4)c3n2)c1)S(C)(=O)=O [P-150, N-methyl-N-[3-[7-(3-methylbenzimidazol-5-yl)-5H-pyrrolo[2,3-b]pyrazin-2-yl]phenyl]methanesulfonamide]
13 | 0.0001 to 1 | 0.0001 to 1 | N#Cc1cc(-c2cnc3[nH]cc(-c4ccc5ncn(C6CCCNC6)c5c4)c3c2)ccc1F (stereo not shown) [P-208, 2-fluoro-5-[3-[3-(3-piperidyl)benzimidazol-5-yl]-1H-pyrrolo[2,3-b]pyridin-5-yl]benzonitrile]
14 | 0.0001 to 1 | 0.0001 to 1 | CC(C)(C)n1cnc2ccc(-c3c[nH]c4ncc(NC(=O)c5cccc(C#N)c5)cc34)cc21 [P-235, N-[3-(3-tert-butylbenzimidazol-5-yl)-1H-pyrrolo[2,3-b]pyridin-5-yl]-3-cyano-benzamide]
15 | 0.0001 to 1 | 0.0001 to 1 | COc1ncccc1C#Cc1cnc2[nH]cc(-c3ccc4ncn(C(C)(C)C)c4c3)c2n1 [P-250, 7-(3-tert-butylbenzimidazol-5-yl)-2-[2-(2-methoxy-3-pyridyl)ethynyl]-5H-pyrrolo[2,3-b]pyrazine]
16 | 0.0001 to 1 | 0.0001 to 1 | CC(C)(C)n1cnc2ccc(-c3c[nH]c4ncc(-c5ccnc(N6CCOCC6)c5)nc34)cc21 [P-228, 4-[4-[7-(3-tert-butylbenzimidazol-5-yl)-5H-pyrrolo[2,3-b]pyrazin-2-yl]-2-pyridyl]morpholine]
17 | 0.0001 to 1 | 0.0001 to 1 | CC(C)(C)n1cnc2ccc(-c3c[nH]c4ncc(-c5cccc(N6CCCS6(=O)=O)c5)nc34)cc21 [P-231, 2-[3-[7-(3-tert-butylbenzimidazol-5-yl)-5H-pyrrolo[2,3-b]pyrazin-2-yl]phenyl]-1,2-thiazolidine 1,1-dioxide]
18 | 0.0001 to 1 | 0.0001 to 1 | CCCS(=O)(=O)Nc1cccc(-c2cnc3[nH]cc(-c4ccc5ncn(C6CCCNC6)c5c4)c3c2)c1 (stereo not shown) [P-217, N-[3-[3-[3-(3-piperidyl)benzimidazol-5-yl]-1H-pyrrolo[2,3-b]pyridin-5-yl]phenyl]propane-1-sulfonamide]
19 | 0.0001 to 1 | 0.0001 to 1 | CC(C)S(=O)(=O)Nc1cccc(-c2cnc3[nH]cc(-c4ccc5ncn(C6CCCNC6)c5c4)c3c2)c1 (stereo not shown) [P-215, N-[3-[3-[3-(3-piperidyl)benzimidazol-5-yl]-1H-pyrrolo[2,3-b]pyridin-5-yl]phenyl]propane-2-sulfonamide]
20 | 0.0001 to 1 | 0.0001 to 1 | COc1cnc2[nH]cc(-c3ccc4ncn(Cc5ccc(F)cc5)c4c3)c2c1 [P-110, 1-[(4-fluorophenyl)methyl]-6-(5-methoxy-1H-pyrrolo[2,3-b]pyridin-3-yl)benzimidazole]
21 | 0.0001 to 1 | 0.0001 to 1 | CCCS(=O)(=O)Nc1cccc(-c2cnc3[nH]cc(-c4ccc5ncn(C(C)(C)C)c5c4)c3c2)c1 [P-216, N-[3-[3-(3-tert-butylbenzimidazol-5-yl)-1H-pyrrolo[2,3-b]pyridin-5-yl]phenyl]propane-1-sulfonamide]
22 | 0.0001 to 1 | 0.0001 to 1 | COc1cc(-c2cnc3[nH]nc(-c4ccc5ncn(C(C)(C)C)c5c4)c3c2)ccn1 [P-272, 3-(1-(tert-butyl)-1H-benzo[d]imidazol-6-yl)-5-(2-methoxypyridin-4-yl)-1H-pyrazolo[3,4-b]pyridine]
23 | 0.0001 to 1 | 0.0001 to 1 | CN(c1cccc(-c2cnc3[nH]cc(-c4ccc5ncn(C)c5c4)c3c2)c1)S(C)(=O)=O [P-120, N-methyl-N-[3-[3-(3-methylbenzimidazol-5-yl)-1H-pyrrolo[2,3-b]pyridin-5-yl]phenyl]methanesulfonamide]

From patent publication US10160755B2 (Plexxikon Inc., priority 2015, dated 2018)
